This is an account of results in US9314446B2, “Sustained releasing pharmaceutical composition” (priority 2013, dated 2016).

The series can be described thus: In-vitro release of diclofenac (dialysis bag, PBS, absorbance 300 nm). The series is classed as physicochemical. The note with it: 1 mg/ml, PBS 37° C. On the procedure:
In-vitro experiment on agent release of hydrogel is designed to simulate its in-vivo effect. The 500 μg/ml latanoprost-loaded solution were added to the transwell (100 μl/well) mounted on 24-well plates, and 1.5 ml PBS was added in each well and then incubated at 37° C. The 1.5 ml PBS was collected and another 1.5 ml PBS was then replenished at each time (Days 1, 7, 14 and 28). The amount of latanoprost was analyzed by a LC-MS/MS system equipped with an electrospray ionization source. The LC-MS/MS consisted of a Sciex API 3000 tandem mass spectrometer and Agilent 1100 series LC system. Separation of latanoprost was achieved by using a Phenomenex Luna C18 column (particle size 5 um, 50 mm×4.6 mm i.d.). The mobile phase consisted of latanoprost was (A) 0.1% (v/v) formic acid and (B) acetonitrile containing 0.1% formic acid (A:B=7:3, v/v) and delivered at 0.3 ml per minute. The mass spectrometer was operated in positive mode which used multiple reaction monitoring. The precursor to produce ion transition of m/z 374.2→195.2 was monitored. In another experiment, the dialysis bags with molecular weight cut-off of 1 kD were used to retain the diclofenac-loaded hydrogel and allow the released diclofenac to permeate into the release medium (PBS). Briefly, 800 μl diclofenac-loaded hydrogel (1 mg/ml) or diclofenac only (1 mg/ml) was added to a dialysis bag. The sample-loaded dialysis bag was immersed in 30 ml of PBS at 100 rpm and 37° C. At fixed time intervals, the release medium was collected and replaced with an equal amount of PBS. According to the absorption curve of diclofenac, the diclofenac content of the each sample was analyzed by Tecan's Infinite® M 1000 spectrophotometer at the wavelength of 300 nm. […] The percentage of cumulative release at 1, 7, 14 and 28 days were 1.34±0.33, 26.80±5.40, 45.03±2.55 and 67.72±4.25%, respectively. Additives in hydrogel affect its composition, structure and may also change its drug releasing characteristics. […] The percentage of cumulative release of 1 mg/ml diclofenac only group at 5, 18, 24, 48, 75 and 140 hours was 106.08±10.48, 99.34±6.57, 106.62±13.76, 102.28±7.40, 105.75±5.76 and 112.14±7.05%.

`O=C(O)Cc1ccccc1Nc1c(Cl)cccc1Cl` [diclofenac]: the “cumulative release of diclofenac” value reads like this: (5 hours) 106.08±10.48%; (18 hours) 99.34±6.57%; (24 hours) 106.62±13.76%; (48 hours) 102.28±7.40%; (75 hours) 105.75±5.76%; (140 hours) 112.14±7.05%.
